Consider 13 molecules from ChEMBL document CHEMBL5523740, “Discovery of Potent and Selective c-Met Degraders for Hepatocellular Carcinoma Treatment” (J Med Chem, 2024).

Molecules are shown by their SMILES. Bounds are passed on as bounds.

The subject of series [1] is MHCC97H. The experiment in a line: Antiproliferative activity against human MHCC97H cells incubated for 24 hrs by CCK8 assay. The format is functional, cell-based. (Formazan colour is commonly taken as a measure of viable cells.)
The target of series [2] is Hepatocyte growth factor receptor (Homo sapiens, UniProt P08581). The experiment in a line: Induction of c-Met degradation in human MHCC97H cells at 1 uM incubated for 24 hrs by Western blotting analysis. The class given is cell-based.
In series [3] the test system is MHCC97H. The experiment in a line: Induction of cell cycle arrest in human MHCC97H cells assessed as accumulation of cells at G1 phase at 3 nM incubated for 24 hrs by PI staining based flow cytometry analysis (reference value: 70.4%). The format is functional. Background: Flow cytometry measures light scatter and fluorescence of single cells or particles in a stream.

For series [4], the system named is MHCC97H. Description: Induction of cell cycle arrest in human MHCC97H cells assessed as accumulation of cells at G2 phase at 3 nM incubated for 24 hrs by PI staining based flow cytometry analysis (reference value: 19.1%). The class given is functional.
Series [5] has as its system MHCC97H. The experiment in a line: Induction of apoptosis in human MHCC97H cells assessed as viable cells at 3 nM incubated for 24 hrs by Annexin-V-FITC/PI staining based flow cytometry analysis (reference value: 86.3%). The format is functional. Conditions: read-out: Activity.
The subject of series [6] is MHCC97H. The experiment in a line: Induction of apoptosis in human MHCC97H cells assessed as early apoptotic cells at 3 nM incubated for 24 hrs by Annexin-V-FITC/PI staining based flow cytometry analysis (reference value: 7.70%). The format is functional.
For series [7], the system named is MHCC97H. The experiment in a line: Induction of apoptosis in human MHCC97H cells assessed as late apoptotic cells at 3 nM incubated for 24 hrs by Annexin-V-FITC/PI staining based flow cytometry analysis (reference value: 4.24%). The class given is functional.
Series [8] has as its system MHCC97H. Description: Induction of apoptosis in human MHCC97H cells assessed as necrotic cells at 3 nM incubated for 24 hrs by Annexin-V-FITC/PI staining based flow cytometry analysis (reference value: 1.77%). The class given is functional.
Series [9] relates to MHCC97H. Description: Antitumor activity against human MHCC97H cells xenografted in BALB/c mouse assessed as tumor growth inhibition at 20 mg/kg, po qd for 22 days and measured every 2 days. The class given is functional. The note with it: 528 h, time 22 day, read-out: TGI. On the technique in general: Xenograft models place foreign cells or tissue in a host animal.
A short description of series [10]: Toxicity in BALB/c mouse xenografted with human MHCC97H cells assessed as reduction in body weight at 20 mg/kg, po qd for 22 days and measured every 2 days. Conditions: in vivo, 528 h, time 22 day. The class given is organism-based.
Series [11] is described as follows: Toxicity in BALB/c mouse xenografted with human MHCC97H cells assessed as liver lesions at 20 mg/kg, po qd for 22 days and measured every 2 days by H and E staining based assay. The class given is organism-based. The note with it: in vivo, 528 h, time 22 day.
Series [12] in a line: Toxicity in BALB/c mouse xenografted with human MHCC97H cells assessed as spleen lesions at 20 mg/kg, po qd for 22 days and measured every 2 days by H and E staining based assay. The class given is organism-based. The note with it: in vivo, 528 h, time 22 day.
A short description of series [13]: Toxicity in BALB/c mouse xenografted with human MHCC97H cells assessed as lung lesions at 20 mg/kg, po qd for 22 days and measured every 2 days by H and E staining based assay. The note with it: in vivo, 528 h, time 22 day. The format is organism-based.
The nature of series [14]: Toxicity in BALB/c mouse xenografted with human MHCC97H cells assessed as kidney lesions at 20 mg/kg, po qd for 22 days and measured every 2 days by H and E staining based assay. Conditions: in vivo, 528 h, time 22 day. The class given is organism-based.
Series [15] is described as follows: Toxicity in BALB/c mouse xenografted with human MHCC97H cells assessed as heart lesions at 20 mg/kg, po qd for 22 days and measured every 2 days by H and E staining based assay. The class given is organism-based. The note with it: in vivo, 528 h, time 22 day.
Series [16] relates to BaF3. Description: Antiproliferative activity against mouse BaF3 cells harboring TPR-MET fusion protein incubated for 72 hrs by CellTiter-Glo reagent based assay. The format is functional, cell-based. Conditions: BaF3, 72 h.
Series [17] has as its system BaF3. The experiment in a line: Antiproliferative activity against mouse BaF3 cells harboring TPR-MET D1228N mutant fusion protein incubated for 72 hrs by CellTiter-Glo reagent based assay. Conditions: BaF3, 72 h. The class given is functional, cell-based.
Series [18] deals with BaF3. Description: Antiproliferative activity against mouse BaF3 cells harboring TPR-MET Y1230H mutant fusion protein incubated for 72 hrs by CellTiter-Glo reagent based assay. The note with it: BaF3, 72 h. The class given is functional, cell-based.

As a reminder, the IC50 is the midpoint of a concentration-inhibition curve.

Sequence of Hepatocyte growth factor receptor (P08581 whole entry): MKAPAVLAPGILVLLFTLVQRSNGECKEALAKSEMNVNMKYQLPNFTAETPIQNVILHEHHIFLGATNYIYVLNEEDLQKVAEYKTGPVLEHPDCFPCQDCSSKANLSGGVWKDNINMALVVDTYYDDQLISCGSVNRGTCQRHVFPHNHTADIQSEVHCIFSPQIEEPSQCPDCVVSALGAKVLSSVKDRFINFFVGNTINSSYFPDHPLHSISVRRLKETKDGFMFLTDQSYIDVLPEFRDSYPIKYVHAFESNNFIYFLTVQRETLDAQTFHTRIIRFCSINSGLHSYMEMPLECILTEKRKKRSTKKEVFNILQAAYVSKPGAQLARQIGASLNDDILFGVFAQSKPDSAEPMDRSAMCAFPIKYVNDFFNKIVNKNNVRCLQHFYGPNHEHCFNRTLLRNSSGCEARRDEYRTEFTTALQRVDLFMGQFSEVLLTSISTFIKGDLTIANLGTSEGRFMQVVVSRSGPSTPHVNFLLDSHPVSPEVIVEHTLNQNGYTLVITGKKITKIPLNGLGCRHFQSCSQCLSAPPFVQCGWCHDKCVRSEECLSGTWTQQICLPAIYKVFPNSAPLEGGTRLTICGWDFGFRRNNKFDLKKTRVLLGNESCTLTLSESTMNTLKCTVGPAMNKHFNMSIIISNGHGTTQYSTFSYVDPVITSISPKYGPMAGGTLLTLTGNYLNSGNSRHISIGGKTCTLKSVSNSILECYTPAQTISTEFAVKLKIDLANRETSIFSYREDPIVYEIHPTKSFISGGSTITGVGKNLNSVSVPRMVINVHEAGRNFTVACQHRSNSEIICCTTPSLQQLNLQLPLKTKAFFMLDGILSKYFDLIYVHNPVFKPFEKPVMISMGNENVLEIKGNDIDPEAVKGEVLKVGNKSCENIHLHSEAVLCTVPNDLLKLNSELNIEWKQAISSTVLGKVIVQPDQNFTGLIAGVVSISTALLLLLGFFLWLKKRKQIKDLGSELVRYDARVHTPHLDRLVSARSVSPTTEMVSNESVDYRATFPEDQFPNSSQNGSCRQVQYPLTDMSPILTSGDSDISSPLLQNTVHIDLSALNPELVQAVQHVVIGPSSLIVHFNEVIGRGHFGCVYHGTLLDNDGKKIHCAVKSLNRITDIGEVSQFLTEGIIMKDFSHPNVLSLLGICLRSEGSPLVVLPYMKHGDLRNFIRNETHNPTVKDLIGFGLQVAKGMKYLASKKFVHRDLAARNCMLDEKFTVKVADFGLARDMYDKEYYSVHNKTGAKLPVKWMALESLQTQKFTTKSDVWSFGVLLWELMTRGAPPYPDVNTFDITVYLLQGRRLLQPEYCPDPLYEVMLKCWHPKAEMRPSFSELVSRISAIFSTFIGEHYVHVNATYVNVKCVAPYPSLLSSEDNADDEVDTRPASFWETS

In the series on MHCC97H [1], `CC(C)[C@@H]1CC[C@@H](C)C[C@H]1OCC(=O)N1CCC(COc2cnc(-c3cccc(Cn4nc(-c5cccc(C#N)c5)ccc4=O)c3)nc2)CC1` came in with an IC50 of 258 nM. In [2], this molecule yielded an Activity of 35.8%.

Turning to `N#Cc1cccc(-c2ccc(=O)n(Cc3cccc(-c4ncc(OCC5CCN(CC(=O)NCCCCCCCCNC(=O)CC67CC8CC(CC(C8)C6)C7)CC5)cn4)c3)n2)c1`, the IC50 in the series with MHCC97H [1] turned out to be 156 nM. The molecule also registered an Activity in series [2] below 10%.

For the molecule `N#Cc1cccc(-c2ccc(=O)n(Cc3cccc(-c4ncc(OCC5CCN(C(=O)CC67CC8CC(CC(C8)C6)C7)CC5)cn4)c3)n2)c1`, inhibition in the series on MHCC97H [1] was half-maximal at 67.2 nM (IC50). Moreover, the Activity in series [2] amounted to 67.4%.

`N#Cc1cccc(-c2ccc(=O)n(Cc3cccc(-c4ncc(OCC5CCN(CC(=O)NCCCCCCCCCCNC(=O)CC67CC8CC(CC(C8)C6)C7)CC5)cn4)c3)n2)c1` had a concentration for half-maximal inhibition (IC50) with MHCC97H [1] of 155 nM. In series [2], the Activity is below 10%.

`N#Cc1cccc(-c2ccc(=O)n(Cc3cccc(-c4ncc(OCC5CCN(C(=O)CC(c6ccccc6)c6ccccc6)CC5)cn4)c3)n2)c1`: inhibition in the series on MHCC97H [1] was half-maximal at 128 nM (IC50). For the same molecule, the Activity in series [2] was below 10%.

For the molecule `N#Cc1cccc(-c2ccc(=O)n(Cc3cccc(-c4ncc(OCC5CCN(CCNC(=O)CC67CC8CC(CC(C8)C6)C7)CC5)cn4)c3)n2)c1`, the IC50 with MHCC97H [1] amounted to 22.9 nM. In series [2], this molecule showed an Activity of 11.1%.

Regarding `CN1CCC(COc2cnc(-c3cccc(Cn4nc(-c5cccc(C#N)c5)ccc4=O)c3)nc2)CC1` [TEPOTINIB], the IC50 was 3.66 nM in the series on MHCC97H [1], 5.3 nM with BaF3 [16], 2030 nM in the series with BaF3 [17] and 1840 nM with BaF3 [18]. The Activity with MHCC97H [3] is 73.7%; with MHCC97H [4], 16.6%; with MHCC97H [6], 13.9%; in the series on MHCC97H [7], 3.84%; in the series with MHCC97H [8] it was 2.57%; in series [10], “Non-Toxic”. Besides, the Activity entry in series [11], in series [12], in series [13], in series [14] and in series [15] was “Non-Toxic” throughout. For the same molecule, the viability at 0.003 µM in the series on MHCC97H [5] came out at 79.6%. Also, the inhibition in vivo at 20 mg/kg in the series with MHCC97H [9] was 58.8%.

In turn, `N#Cc1cccc(-c2ccc(=O)n(Cc3cccc(-c4ncc(OCC5CCN(CC(=O)NCC6CC7C=CC6C7)CC5)cn4)c3)n2)c1` (stereo unspecified) showed an IC50 with MHCC97H [1] of 73.6 nM. The molecule further had an Activity in series [2] of 50.2%.

Regarding `N#Cc1cccc(-c2ccc(=O)n(Cc3cccc(-c4ncc(OCC5CCN(CC(=O)NCCNC(=O)CC67CC8CC(CC(C8)C6)C7)CC5)cn4)c3)n2)c1`, the 50% inhibitory concentration (IC50) in the series on MHCC97H [1] is 40.2 nM. This molecule had an Activity in series [2] of 22.4%.

Turning to `N#Cc1cccc(-c2ccc(=O)n(Cc3cccc(-c4ncc(OCC5CCN(CC(=O)NCCCCCCNC(=O)CC67CC8CC(CC(C8)C6)C7)CC5)cn4)c3)n2)c1`, the concentration for half-maximal inhibition (IC50) in the series on MHCC97H [1] came to 200 nM. The Activity in series [2] was below 10%.

`N#Cc1cccc(-c2ccc(=O)n(Cc3cccc(-c4ncc(OCC5CCN(C(=O)CC6c7ccccc7-c7ccccc76)CC5)cn4)c3)n2)c1`: the half-inhibitory concentration (IC50) in the series on MHCC97H [1] was determined as 935 nM. This molecule had an Activity in series [2] of 15.8%.

`N#Cc1cccc(-c2ccc(=O)n(Cc3cccc(-c4ncc(OCC5CCN(CC(=O)NCCCCNC(=O)CC67CC8CC(CC(C8)C6)C7)CC5)cn4)c3)n2)c1` registered an IC50 in the series with MHCC97H [1] of 139 nM. The Activity in [2] was below 10%.

`N#Cc1cccc(-c2ccc(=O)n(Cc3cccc(-c4ncc(OCC5CCN(CCCC(=O)NCC67CC8CC(CC(C8)C6)C7)CC5)cn4)c3)n2)c1` came in with an IC50 in the series on MHCC97H [1] of 11.8 nM. The Activity in series [2] turned out to be 40.5%.
